Results published in patent publication US6825230B2, “Spiro and dispiro 1,2,4-trixolane antimalarials” (Medicines for Malaria Venture MMV, priority 2002, dated 2004).

Experiments:
P. berghei ANKA strain [1] = assay: Onset of action and recrudescence experiment, single 100 mg/kg po; type: in vivo, Plasmodium berghei; conditions: single 100 mg/kg po (SSV) on day +3 post-infection; recrudescence = >5% parasitemia; followed up to 60 days; groups of five
Description: The onset of drug action was determined after a single fixed dose of 100 mg/kg (SSV vehicle) po to groups of five animals on day +3 post-infection (day 0).
(§1) Moro NMRI male mice (Fu Albino specific pathogen free) weighing 18±2 g were infected intravenously (i.v.) with 2×10^7 P. berghei ANKA strain-infected erythrocytes from donor mice on day 0 of the experiment. From donor mice with circa 30% parasitemia, heparinized blood was taken and diluted in physiological saline to 10^8 parasitized erythrocytes per ml. An aliquot (0.2 ml) of this suspension was injected i.v. into experimental and control groups of mice. […] Throughout the experiments, mice were kept in groups of three or five animals in Makrolon type II cages in an air-conditioned animal room at 22 to 23° C.

P. berghei ANKA strain [2] = assay: Prophylactic activity, single 100 mg/kg po at various times before infection; type: in vivo, Plasmodium berghei; conditions: parasitemia reduction on day 3 post-infection
Description: as §1
Prophylactic activities of the compounds were compared after administering po single dose of 100 mg/kg to different groups of five animals at various times before infection. All groups including an untreated control group, were then infected at the same time. Parasitemia was determined for each animal on day 3 post-infection, and percent of reduction of the level of parasitemia compared to levels for animals given no drug is determined.

[3] = tested on: chloroquine-resistant K1 strain of P. falciparum; assay: In vitro antimalarial semiautomated microdilution assay ([3H]-hypoxanthine incorporation), K1 strain; type: cell-based, Plasmodium falciparum; conditions: Plasmodium falciparum, K1, 72 h, read-out: IC50 (ng/ml) K1, chloroquine-resistant K1 strain, 72 h incubation
In short: (§2)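 Semiautomated microdilution against intraerythrocytic P. falciparum from asynchronous stock cultures, with growth tracked by [3H]-hypoxanthine incorporation. IC50 values were estimated by Logit regression analysis.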

P. berghei ANKA strain [4] = assay: Divided 3x10 mg/kg vs single 1x30 mg/kg po dose in infected mice; type: in vivo, Plasmodium berghei
[5] = tested on: chloroquine-sensitive NF54 strain of P. falciparum; assay: In vitro antimalarial semiautomated microdilution assay ([3H]-hypoxanthine incorporation), NF54 strain; type: cell-based, Plasmodium falciparum; conditions: Plasmodium falciparum, NF54, 72 h, read-out: IC50 (ng/ml) NF54, chloroquine-sensitive NF54 strain, 72 h incubation
In short: as §2

[6] = Pharmacokinetics in dogs (IV and oral dosing); conditions: in vivo, dog; for bioavailability: some values marked (V), not defined
Excerpt: (§3) Artesunate is listed as a reference compound.

[7] = Pharmacokinetics in rats (IV and oral dosing); conditions: in vivo, rat
Excerpt: as §3

[8] = tested on: ANKA strain of P. berghei; assay: Single dose STI in vivo screen in infected mice; design: species or system Plasmodium berghei
P. berghei ANKA strain [9] = assay: Divided 3x3 mg/kg and 3x1 mg/kg po doses in infected mice; type: in vivo, Plasmodium berghei; conditions: for Activity (%): percent reduction of parasitemia vs control on day 4
In short: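 Male NMRI mice were infected i.v. with 2×10^7 P. berghei-parasitized erythrocytes on day 0, then dosed orally in SSV vehicle on days 1, 2 and 3 post-infection.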

[10] = tested on: ANKA strain of Plasmodium berghei; assay: Single dose ED50/ED90/ED99 determination in infected mice; type: in vivo; conditions: single dose po in SSV on day 1 post-infection, parasitemia day 3, nonlinear fitting
In short: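 Moro SPF or NMRI mice (three per group) infected with P. berghei ANKA were dosed once on day 1 post-infection in SSV (0.5% CMC, 0.5% benzyl alcohol, 0.4% Tween 80, 0.9% NaCl). Parasitemia reduction was scored on day 3; ED values (mg/kg) came from nonlinear fitting.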

[11] = tested on: Schistosoma mansoni adult worms (49-day-old); assay: Effect on adult schistosomes (49-day-old) in infected mice; type: in vivo; conditions: single 400 mg/kg per os
Description: Mice were infected with 100 Schistosoma mansoni cercariae on day 49 post-treatment. Each group was treated per os with OZ compounds at single doses of 200, 400, and 600 mg/kg. Untreated mice served as the control. All groups were killed 4 weeks after treatment and the liver and intestine were removed and separated. The liver and intestine were compressed and alive male and female worms could be seen and counted.

[12] = Differential scanning calorimetry (DSC) thermal stability; type: physicochemical; conditions: thermal decomposition
[13] = 3 × 1 mg/kg p.o. SSV on days 1, 2, 3 post-infection
[14] = 3 × 3 mg/kg p.o. SSV on days 1, 2, 3 post-infection

For Cc1ccc(S(=O)(=O)O)cc1.O=C(C[C@H]1CC[C@]2(CC1)OO[C@]1(O2)C2CC3CC(C2)CC1C3)N1CCNCC1 [OZ279], the “Time of Recrudescence” value (P. berghei ANKA strain [1]) was 15.0 days, the “Prophylactic Activity (%) 24 h” value (P. berghei ANKA strain [2]; single 100 mg/kg po 24 h before infection) was 97% and the “Prophylactic Activity (%) 48 h” value (P. berghei ANKA strain [2]; single 100 mg/kg po 48 h before infection) was 27%. The “Prophylactic Activity (%) 72 h” value (P. berghei ANKA strain [2]; single 100 mg/kg po 72 h before infection) was 14%, the “Prophylactic Activity (%) 0 h” value (P. berghei ANKA strain [2]; single 100 mg/kg po at 0 h) was 100% and the IC50 [3] was 0.21 ng/mL. The “Survival (days) 3 × 10 mg/kg p.o. SSV” value (P. berghei ANKA strain [4]; 10 mg/kg po on days 1, 2, 3 post-infection) was 25.4 days, the “Activity (%) 3 × 10 mg/kg p.o. SSV” value (P. berghei ANKA strain [4]; 10 mg/kg po on days 1, 2, 3 post-infection, parasitemia reduction on day 4) was 100% and the “Survival (days) 1 × 30 mg/kg p.o. SSV” value (P. berghei ANKA strain [4]; single 30 mg/kg po on day 1 post-infection) was 14.8 days. The “Activity (%) 1 × 30 mg/kg p.o. SSV” value (P. berghei ANKA strain [4]; single 30 mg/kg po on day 1 post-infection, parasitemia reduction on day 4) was 99.95%, the “Cures 1 × 30 mg/kg p.o. SSV” value (P. berghei ANKA strain [4]; single 30 mg/kg po, cure = survival to day 30 post-infection) was 0/5 and the IC50 [5] was 0.24 ng/mL. The half-life ([6]; IV 10 mg/kg) was 2.96 h, the half-life ([6]; oral 10 mg/kg) was 3.26 h and the bioavailability ([6]; oral 10 mg/kg, read-out: Dog Oral Bioavailability 10 mg/kg) was 32.8%. The bioavailability ([6]; oral 25 mg/kg, read-out: Dog Oral Bioavailability 25 mg/kg) was 55.7%, the half-life ([7]; IV 10 mg/kg) was 1.68 h and the bioavailability ([7]; oral 10 mg/kg, read-out: Rat Oral Bioavailability 10 mg/kg) was 37.2%. The half-life ([7]; oral 25 mg/kg) was 2.78 h, the bioavailability ([7]; oral 25 mg/kg, read-out: Rat Oral Bioavailability 25 mg/kg) was 71.1% and the “Activity (%) 3 mg/kg SSV po” value ([8]; single 3 mg/kg po in SSV, percent reduction in parasitemia on day 3) was 99.42%. The “Survival (days) 10 mg/kg SSV po” value ([8]; single 10 mg/kg po in SSV, untreated 6-7 days) was 9.3 days, the “Activity (%) 10 mg/kg SSV po” value ([8]; single 10 mg/kg po in standard suspending vehicle (SSV) on day 1 post-infection, percent reduction in parasitemia on day 3) was 99.98% and the “Survival” value (P. berghei ANKA strain [9]; [13]) was 8.8 days. The “Activity (%)” value (P. berghei ANKA strain [9]; [13]) was 83%, the “Survival” value (P. berghei ANKA strain [9]; [14]) was 14.8 days and the “Activity (%)” value (P. berghei ANKA strain [9]; [14]) was 100%. For the same compound, the ED50 ([10]; Plasmodium berghei, po) was 0.63 mg/kg, the “ED90” value [10] was 1.8 mg/kg and the “ED99” value [10] was 3.9 mg/kg. The “% reduction of adult worms growth at day 49 after per os application of 400 mg/kg, TWR (%)” value ([11]; 49-day-old adults, total worm reduction rate) was 0% and the “Adult worms day 49, per os 400 mg/kg, DEAD WORM (%)” value ([11]; percentage of dead worm in the liver) was 12%.

In the case of C[C@@H]1CC[C@H]2[C@@H](C)C(=O)O[C@@H]3O[C@@]4(C)CC[C@@H]1[C@]32OO4 [Artemisinin, artemisinin, reference compound], the “Tm, dec (DSC)” value [12] is reported as 181 °C and the “Time of Recrudescence” value (P. berghei ANKA strain [1]) is reported as 8.4 days.
